Data reported in patent publication EP2548863A1, “New CRTh2 antagonists” (Almirall, S.A., priority 2011, dated 2013).

Biological target: T1, CRTh2 receptor (Homo sapiens, UniProt Q9Y5Y4)
T1 construct: expressed in transfected cells; host or cells: CHO.K1 cells (membranes)
T1 sequence (Q9Y5Y4 1-395): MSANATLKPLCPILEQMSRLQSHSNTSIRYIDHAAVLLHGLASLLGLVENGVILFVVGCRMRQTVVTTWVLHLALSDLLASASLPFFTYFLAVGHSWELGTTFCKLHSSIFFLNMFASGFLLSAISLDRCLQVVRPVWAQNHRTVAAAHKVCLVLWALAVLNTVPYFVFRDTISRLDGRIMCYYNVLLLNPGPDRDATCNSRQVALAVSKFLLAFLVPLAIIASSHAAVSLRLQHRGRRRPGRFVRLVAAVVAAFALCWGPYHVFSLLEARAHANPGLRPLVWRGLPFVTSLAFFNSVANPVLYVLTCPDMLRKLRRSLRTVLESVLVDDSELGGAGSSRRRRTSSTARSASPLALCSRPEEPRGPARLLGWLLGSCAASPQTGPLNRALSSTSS
Assay: CRTh2 GTPγS antagonism binding assay
Assay type: biochemical
Details: membranes from CHO.K1 cells stably overexpressing the CRTh2 receptor; [35S]-GTPγS 0.1 nM; PGD2 at 50 nM (EC80); IC50 per method; read-out: GTPγ Binding
Protocol: CRTh2 GTPγS antagonism bending assay
The assay is performed using membranes obtained from CHO.K1 cells stably overexpressing the CRTh2 receptor and [^35S]-GTPγS as radioligand. Assay is performed pre-incubating 4-8 µg of membranes per well with the compound to be tested for 1h, followed by incubation with PGD2 at 50 nM (EC80), 0.1 nM [^35S]-GTPγS in incubation buffer (20 mM Herpes, 10 mM MgCl2, 100 mM NaCl, 10 µM GDP, 10 µg/ml Saponine and 0.2% BSA) for 2 h at room temperature. The reaction is terminated by filtering in GF/C plates pre-treated with 20 mM HEPES, 10 mM MgCl2, 100 mM NaCl and washing 6 times with wash buffer (20 mM NaH2PO4, 20 mM Na2HPO4). After washing, plates are dried and scintillation buffer Optiphase added. The radioactivity retained in the filter is counted using a Microbeta liquid scintillation counter. Compound IC50 are determined using Excel XL-fit for calculations.

Row | SMILES | IC50
1 | CCN(Cc1cc(F)ccc1-c1nn(CC(=O)O)c2ccc(Cl)cc12)C(C)=O [Example 22] | 10 nM
2 | CCN(Cc1cc(C(F)(F)F)ccc1-c1nn(CC(=O)O)c2cccc(C)c12)C(=O)C1CC1 [Example 16, {3-[2-{[(Cyclopropylcarbonyl)(ethyl)ammo]methyl}-4-(trifluoromethyl)phenyl]-4-methyl-1H-indazol-1-yl}acetic acid] | 17 nM
3 | CCN(Cc1cc(C(F)(F)F)ccc1-c1nn(C(C)C(=O)O)c2cccc(Cl)c12)C(=O)C1CC1 (stereo not drawn) [Example 9, 2-{4-Chloro-3-[2-{[(cyclopropylcarbonyl)(ethyl)amino]methyl}-4-(trifluoromethyl)phenyl]-1H-indazol-1-yl}propanoic acid] | 13 nM
4 | CCN(Cc1cc(C(F)(F)F)ccc1-c1nn(CC(=O)O)c2cccc(F)c12)C(=O)C1CC1 [Example 14, {3-[2-{[(Cyclopropylcarbonyl)(ethyl)amino]methyl}-4-(trifluoromethyl)phenyl]-4-fluoro-1H-indazol-1-yl}acetic acid] | 4 nM
5 | CCN(Cc1cc(F)ccc1-c1nn(CC(=O)O)c2ccc(C(F)(F)F)cc12)C(=O)C1CC1 [Example 8, [3-(2-{[(Cyclopropylcarbonyl)(ethyl)amino]methyl}-4-fluorophenyl)-5-(trifluoromethyl)-1H-indazol-1-yl]acetic acid] | 7 nM
6 | CCN(Cc1cc(C(F)(F)F)ccc1-c1cn(CC(=O)O)c2ccc(F)cc12)C(=O)NCc1ccccc1 [Example 43, {3-[2-{[[(Benzylamino)carbonyl](ethyl)aaino]methyl]-4-(trifluoromethyl)phenyl]-5-fluoro-1H-indol-1-yl}acetic acid] | 16 nM
7 | CCN(Cc1cc(F)ccc1-c1nn(CC(=O)O)c2cccc(Cl)c12)C(=O)C1CC1 [Example 4, [4-Chloro-3-(2-{[(cyclopropylcarbonyl)(ethyl)amino]methyl}-4-fluorophenyl)-1H-indazol-1-yl]acetic acid] | 9 nM
8 | CCN(Cc1cc(C(F)(F)F)ccc1-c1cn(CC(=O)O)c2cccc(F)c12)C(=O)C1CC1 [Example 40, (3-[2-[[(Cyclopropylcarbonyl)(ethyl)amino]methyl}-4-(trifluoromethyl)phenyl]-4-fluoro-1H-indol-1-yl}acetic acid] | 3 nM
9 | CCN(Cc1cc(C(F)(F)F)ccc1-c1nn(CC(=O)O)c2ccc(F)c(Cl)c12)C(=O)C1CC1 [Example 17, {4-Chloro-3-[2-{[(cydopropylcarbonyl)(ethyl)amino]methyl}-4-(trifluoromethyl)phenyl]-5-fluoro-1H-indazol-1-yl}acetic acid] | 10 nM
10 | CCN(Cc1cc(C(F)(F)F)ccc1-c1cn(CC(=O)O)c2ccc(F)c(F)c12)C(=O)C1CC1 [Example 50, {3-[2-{[(Cyclopropylcarbonyl)(ethyl)amino]methyl)-4-(trifluoromethyl)phenyl]-4,5-difluoro-1H-indol-1-yl}acetic acid] | 16 nM
11 | CCN(Cc1cc(C(F)(F)F)ccc1-c1nn(CC(=O)O)c2ccccc12)C(=O)C1CC1 [Example 1, {3-[2-{[(Cyclopropylcarbonyl)(ethyl)amino]methyl]-4-(trifluoromethyl)phenyl]-1H-indazol-1-yl}acetic acid] | 18 nM
12 | CCN(Cc1cc(F)ccc1-c1cn(CC(=O)O)c2ccc(F)cc12)C(=O)C1CC1 [Example 42, [3-(2-([(Cyclopropylcarbonyl)(ethyl)amino]methyl}-4-fluorophenyl)-5-fluoro-1H-indol-1-yl]acetic acid] | 6 nM
13 | CCN(Cc1cc(F)ccc1-c1nn(CC(=O)O)c2ccc(Cl)cc12)C(=O)C1CC1 [Example 11, [5-Chloro-3-(2-{[(cyclopropylcarbonyl)(ethyl)amino]methyl}-4-fluorophenyl)-1H-indazol-1-yl]acetic acid] | 6 nM
14 | CCN(Cc1cc(F)ccc1-c1cn(CC(=O)O)c2ccc(C(F)(F)F)cc12)C(=O)C1CC1 [Example 39, [3-(2-[[(Cyclopropylcarbonyl)(ethyl)amino]methyl}-4-fluorophenyl)-5-(trifluoromethyl)-1H-indol-1-yl]acetic acid] | 13 nM
15 | Cc1nnc(C2CC2)n1Cc1cc(C(F)(F)F)ccc1-c1cn(CC(=O)O)c2ccc(F)cc12 [Example 46, (3-[2-[(3-Cyclopropyl-5-methyl-4H-1,2,4-triazol-4-yl)methyl]-4-(trifluoromethyl)phenyl]-5-fluoro-1H-indol-1-yl}acetic acid] | 9 nM
16 | CCN(Cc1cc(F)ccc1-c1nn(CC(=O)O)c2ccc(Cl)cc12)C(=O)C1CCC1 [Example 19, [5-Chloro-3-(2-{[(cyclobutylcarbonyl)(ethyl)amino]methyl}-4-fluorophenyl)-1H-indazol-1-yl]acetic acid] | 7 nM
17 | CCN(Cc1cc(C(F)(F)F)ccc1-n1cc(CC(=O)O)c2ccc(F)cc21)C(=O)C1CC1 [Example 30, {1-[2-[[(Cyclopropylcarbonyl)(ethyl)amino]methyl}-4-(trifluoromethyl)phenyl]-6-fluoro-1H-indol-3-yl}acetic acid] | 18 nM
18 | CCN(Cc1cc(C(F)(F)F)ccc1-c1cn(CC(=O)O)c2ccccc12)C(=O)C1CC1 [Example 31, (3-[2-[[(Cyclopropylcarbonyl)(ethyl)amino]methyl)-4-(trifluoromethyl)phenyl]-1H-indol-1-yl}acetic acid] | 19 nM
19 | CCN(Cc1cc(C(F)(F)F)ccc1-c1nn(CC(=O)O)c2cccc(Cl)c12)C(=O)NCc1ccccc1 [Example 23, (3-[2-{[[(Benzylamino)carbonyl](ethyl)amino]methyl}-4-(trifluoromethyl)phenyl]-4-chloro-1H-indazol-1-yl}acetic acid] | 8 nM
20 | CCN(Cc1ccccc1-c1cn(CC(=O)O)c2ccc(F)cc12)C(=O)C1CC1 [Example 54, [3-(2-([(Cyclopropylcarbonyl)(ethyl)amino]methyl)phenyl)-5-fluoro-1H-indol-1-yl]acetic acid] | 4 nM
21 | CCN(Cc1cc(C(F)(F)F)ccc1-c1nn(CC(=O)O)c2cccc(Cl)c12)C(=O)C1CC1 [Example 2, {4-Chloro-3-[2-{[(cyccopropylcarbonyl)(ethyl)amino]methyl}-4-(trifluoromethyl)phenyl]-1H-indazol-1-yl}acetic acid] | 6 nM
22 | CCN(Cc1cc(F)ccc1-c1cn(CC(=O)O)c2ccccc12)C(=O)C1CC1 [Example 37, [3-(2-[[(Cyclopropylcarbonyl)(ethyl)amino]methyl}-4-fluorophenyl)-1H-indol-1-yl]acetic acid] | 11 nM
23 | CCN(Cc1cc(C(F)(F)F)ccc1-c1nn(CC(=O)O)c2ccc(Cl)cc12)C(=O)C1CC1 [Example 5] | 16 nM
24 | CCN(Cc1cc(F)ccc1-c1nn(CC(=O)O)c2ccc(Cl)cc12)C(=O)OC(C)(C)C [Example 18, [3-(2-{[(tert-Butoxycarbonyl)(ethyl)amino]methyl}-4-fluorophenyl)-5-chloro-1H-indazol-1-yl]acetic acid] | 13 nM
25 | CCN(Cc1cc(C(F)(F)F)ccc1-c1nn(CC(=O)O)c2ccc(F)cc12)C(=O)C1CC1 [Example 3, {3-[2-{[(Cyclopropylcarbonyl)(ethyl)amino]methyl}-4-(trifluoromethyl)phenyl]-5-fluoro-1H-indazol-1-yl}acetic acid] | 15 nM
26 | CCN(Cc1cc(C(F)(F)F)ccc1-c1cn(CC(=O)O)c2ccc(F)cc12)C(=O)C1CC1 [Example 33] | 18 nM
27 | CCN(Cc1cc(C(F)(F)F)ccc1-c1nn(CC(=O)O)c2ccc(Cl)c(F)c12)C(=O)C1CC1 [Example 27] | 14 nM
28 | CCN(Cc1ccccc1-c1nn(CC(=O)O)c2ccc(Cl)cc12)C(=O)C1CC1 [Example 24] | 9 nM
29 | CCN(Cc1cc(C(F)(F)F)ccc1-c1nn(CC(=O)O)c2ccc(C)cc12)C(=O)C1CC1 [Example 15, {3-[2-{[(Cyclopropylcarbonyl)(ethyl)amino]methyl}-4-(trifluoromethyl)phenyl]-5-methyl-1H-indazol-1-yl}acetic acid] | 8 nM
30 | CCN(Cc1cc(F)ccc1-c1cn(CC(=O)O)c2cccc(F)c12)C(=O)C1CC1 [Example 52, [3-(2-{[(Cyclopropylcarbonyl)(ethyl)amino]methyl}-4-fluorophenyl)-4-fluoro-1H-indol-1-yl]acetic acid] | 7 nM
